Measurements as given in patent US20220089568A1 (Janssen Biotech, Inc., priority 2019, published 2022).

What was measured:
[1] = target: T1, human DHODH (Homo sapiens, UniProt Q02127); experiment: DHODH Enzymatic Assay; type: biochemical; details: purified human DHODH; DCIP absorbance, end-point mode
T1 construct: purchased Proteros PR-0044
In short: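 Purified human DHODH activity read as absorbance of DCIP, the terminal electron acceptor, in […] pH 7.5, 150 mM NaCl, 0.5 mM EDTA, 0.1% Triton X-100. Reaction started with a substrate mix of 20 mM DHO, 5 mM CoQ6 and 1 mM DCIP in assay buffer.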

[2] = tested on: MOLM-13 cells; experiment: MOLM-13 Cellular Assay; type: cell-based; details: Homo sapiens, 72 hours exposure, cell viability by CellTiter-Glo
Experimental: The day prior to assay set-up, cells were pelleted, resuspended in fresh media, counted, and cells were plated at 0.4×10^6 cell/mL in a T150 flask. […] Cells were exposed to different concentrations of test compounds at 37° C., 5% CO2 for 72 hours immediately after seeding.

T1 sequence (Q02127 whole entry): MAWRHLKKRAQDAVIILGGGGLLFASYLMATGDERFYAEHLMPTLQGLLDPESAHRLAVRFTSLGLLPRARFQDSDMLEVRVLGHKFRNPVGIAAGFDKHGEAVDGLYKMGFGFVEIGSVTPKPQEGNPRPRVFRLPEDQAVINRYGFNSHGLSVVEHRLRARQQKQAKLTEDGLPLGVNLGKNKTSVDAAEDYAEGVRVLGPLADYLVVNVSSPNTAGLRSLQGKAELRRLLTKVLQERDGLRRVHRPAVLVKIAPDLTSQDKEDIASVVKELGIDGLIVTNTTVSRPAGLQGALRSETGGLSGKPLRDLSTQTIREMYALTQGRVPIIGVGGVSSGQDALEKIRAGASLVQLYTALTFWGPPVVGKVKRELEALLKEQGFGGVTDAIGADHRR

EC50 [1] [nM]	EC50 [2] [nM]	SMILES
4.1	1.25	Cc1n[nH]c(Cl)c1NC(=O)c1cc(F)c(-n2nc(CF)n(CCO)c2=O)nc1O[C@@H](C)C(F)(F)F [Example 115, N-(5-Chloro-3-methyl-1H-pyrazol-4-yl)-5-fluoro-6-[3-(fluoromethyl)-4-(2-hydroxyethyl)-5-oxo-1,2,4-triazol-1-yl]-2-[(1S)-2,2,2-trifluoro-1-methyl-ethoxy]pyridine-3-carboxamide]
17.4	52.4	CCn1c(CO)nn(-c2nc(O[C@@H](C)C(F)(F)F)c(C(=O)Nc3cc(C)cnc3OC)cc2F)c1=O [Example 41, (S)-6-(4-Ethyl-3-(hydroxymethyl)-5-oxo-4,5-dihydro-1H-1,2,4-triazol-1-yl)-5-fluoro-N-(2-methoxy-5-methylpyridin-3-yl)-2-((1,1,1-trifluoropropan-2-yl)oxy)nicotinamide]
13.8	4.14	CCn1c(CO)nn(-c2nc(O[C@@H](C)C(F)(F)F)c(C(=O)Nc3c(OC)ccnc3OC)cc2F)c1=O [Example 93, N-(2,4-Dimethoxy-3-pyridyl)-6-[4-ethyl-3-(hydroxymethyl)-5-oxo-1,2,4-triazol-1-yl]-5-fluoro-2-[(1S)-2,2,2-trifluoro-1-methyl-ethoxy]pyridine-3-carboxamide]
202	> 100	CCn1c(CO)nn(-c2nc(O[C@@H](C)C(F)(F)F)c(C(=O)Nc3cc(OC)ncc3F)cc2F)c1=O [Example 65, (S)-6-(4-Ethyl-3-(hydroxymethyl)-5-oxo-4,5-dihydro-1H-1,2,4-triazol-1-yl)-5-fluoro-N-(5-fluoro-2-methoxypyridin-4-yl)-2-((1,1,1-trifluoropropan-2-yl)oxy)nicotinamide]
> 100	9.1	CCn1c(CO)nn(-c2nc(O[C@@H](C)C(F)(F)F)c(C(=O)Nc3c(OC)cncc3OC)cc2F)c1=O [Example 122, N-(3,5-Dimethoxy-4-pyridyl)-6-[4-ethyl-3-(hydroxymethyl)-5-oxo-1,2,4-triazol-1-yl]-5-fluoro-2-[(1S)-2,2,2-trifluoro-1-methyl-ethoxy]pyridine-3-carboxamide]
9.55	4.46	CCn1c(C(C)(C)O)nn(-c2nc(O[C@@H](C)C(F)(F)F)c(C(=O)Nc3c(C)n[nH]c3C(F)(F)F)cc2F)c1=O [Example 128, 6-[4-Ethyl-3-(1-hydroxy-1-methyl-ethyl)-5-oxo-1,2,4-triazol-1-yl]-5-fluoro-N-[3-methyl-5-(trifluoromethyl)-1H-pyrazol-4-yl]-2-[(1S)-2,2,2-trifluoro-1-methyl-ethoxy]pyridine-3-carboxamide]
1.7	20.2	CCn1c(CO)nn(-c2nc(O[C@@H](C)C(F)(F)F)c(C(=O)Nc3c[nH]nc3C)cc2F)c1=O [Example 57, (S)-6-(4-Ethyl-3-(hydroxymethyl)-5-oxo-4,5-dihydro-1H-1,2,4-triazol-1-yl)-5-fluoro-N-(3-methyl-1H-pyrazol-4-yl)-2-((1,1,1-trifluoropropan-2-yl)oxy)nicotinamide]
2.8	6.5	CCn1c(CO)nn(-c2nc(O[C@@H](C)C(F)(F)F)c(C(=O)Nc3cccnc3Cl)cc2F)c1=O [Example 4, (S)-N-(2-Chloropyridin-3-yl)-6-(4-ethyl-3-(hydroxymethyl)-5-oxo-4,5-dihydro-1H-1,2,4-triazol-1-yl)-5-fluoro-2-((1,1,1-trifluoropropan-2-yl)oxy)nicotinamide]
489	> 100	CCOc1ncc(F)c(NC(=O)c2cc(F)c(-n3nc(CO)n(CC)c3=O)nc2O[C@@H](C)C(F)(F)F)n1 [Example 70, (S)-N-(2-Ethoxy-5-fluoropyrimidin-4-yl)-6-(4-ethyl-3-(hydroxymethyl)-5-oxo-4,5-dihydro-1H-1,2,4-triazol-1-yl)-5-fluoro-2-((1,1,1-trifluoropropan-2-yl)oxy)nicotinamide]
6.4	52.4	CCn1c(CO)nn(-c2nc(O[C@@H](C)C(F)(F)F)c(C(=O)Nc3cc(C)cnc3C)cc2F)c1=O [Example 51, (S)-N-(2,5-Dimethylpyridin-3-yl)-6-(4-ethyl-3-(hydroxymethyl)-5-oxo-4,5-dihydro-1H-1,2,4-triazol-1-yl)-5-fluoro-2-((1,1,1-trifluoropropan-2-yl)oxy)nicotinamide]
13.5	6.9	CCn1c(CO)nn(-c2nc(O[C@@H](C)C(F)(F)F)c(C(=O)Nc3cc(OC)ccc3F)cc2F)c1=O [Example 47, (S)-6-(4-Ethyl-3-(hydroxymethyl)-5-oxo-4,5-dihydro-1H-1,2,4-triazol-1-yl)-5-fluoro-N-(2-fluoro-5-methoxyphenyl)-2-((1,1,1-trifluoropropan-2-yl)oxy)nicotinamide]
5.2	6.9	CCn1c(CO)nn(-c2nc(O[C@@H](C)C(F)(F)F)c(C(=O)Nc3ncccc3Cl)cc2F)c1=O [Example 54, (S)-N-(3-Chloropyridin-2-yl)-6-(4-ethyl-3-(hydroxymethyl)-5-oxo-4,5-dihydro-1H-1,2,4-triazol-1-yl)-5-fluoro-2-((1,1,1-trifluoropropan-2-yl)oxy)nicotinamide]
39.4	19.4	Cc1ccnc(Cl)c1NC(=O)c1cc(F)c(-n2nc(CF)n(CCCO)c2=O)nc1O[C@@H](C)C(F)(F)F [Example 101, N-(2-Chloro-4-methyl-3-pyridyl)-5-fluoro-6-[3-(fluoromethyl)-4-(3-hydroxypropyl)-5-oxo-1,2,4-triazol-1-yl]-2-[(1S)-2,2,2-trifluoro-1-methyl-ethoxy]pyridine-3-carboxamide]
3.86	2.04	CCCn1c(CO)nn(-c2nc(O[C@@H](C)C(F)(F)F)c(C(=O)Nc3c(C)n[nH]c3Cl)cc2F)c1=O [Example 91, N-(5-Chloro-3-methyl-1H-pyrazol-4-yl)-5-fluoro-6-[3-(hydroxymethyl)-5-oxo-4-propyl-1,2,4-triazol-1-yl]-2-[(1S)-2,2,2-trifluoro-1-methyl-ethoxy]pyridine-3-carboxamide]
58.6	> 100	CCn1c(CO)nn(-c2nc(O[C@@H](C)C(F)(F)F)c(C(=O)Nc3cc(C)cnc3F)cc2F)c1=O [Example 36, (S)-6-(4-Ethyl-3-(hydroxymethyl)-5-oxo-4,5-dihydro-1H-1,2,4-triazol-1-yl)-5-fluoro-N-(2-fluoro-5-methylpyridin-3-yl)-2-((1,1,1-trifluoropropan-2-yl)oxy)nicotinamide]
> 100	17.3	CCn1c(CO)nn(-c2nc(O[C@@H](C)C(F)(F)F)c(C(=O)Nc3c(OC)cc(C)nc3C)cc2F)c1=O [Example 103, 6-[4-ethyl-3-(hydroxymethyl)-5-oxo-1,2,4-triazol-1-yl]-5-fluoro-N-(4-methoxy-2,6-dimethyl-3-pyridyl)-2-[(1S)-2,2,2-trifluoro-1-methyl-ethoxy]pyridine-3-carboxamide]

SMILES	EC50 [1] [nM]	EC50 [2] [nM]
CCn1c(CO)nn(-c2nc(O[C@@H](C)C(F)(F)F)c(C(=O)Nc3c(C)cnc(OC)c3Cl)cc2F)c1=O [Example 40, (S)-N-(3-Chloro-2-methoxy-5-methylpyridin-4-yl)-6-(4-ethyl-3-(hydroxymethyl)-5-oxo-4,5-dihydro-1H-1,2,4-triazol-1-yl)-5-fluoro-2-((1,1,1-trifluoropropan-2-yl)oxy)nicotinamide]	0.31	0.3
